Measurements from patent US6914045B2, “Glycopeptide antibiotics” (Wyeth Holdings Corporation, priority 2001, dated 2005).
≈ marks a conversion by molar mass, not a printed value. One block for each compound: values may come before it.

Legend:
Assay in all cases: in vitro antibacterial evaluation, MIC by broth dilution
Format in all cases: cell-based
Enterococcus sp. = conditions: broth dilution, 18 hours at 35° C.
Procedure: (§1) Methods for in vitro Antibacterial Evaluation (Table 1)
(§2) The minimum inhibitory concentration (MIC), the lowest concentration of the antibiotic which inhibits growth of the test organism, is determined by the broth dilution method using Muller-Hinton II […] (Baltimore Biological Laboratories) following the recommendations of the National Committee for Clinical Laboratory Standards [Methods for dilution antimicrobial susceptibility tests for bacteria that grow aerobically, approved standard M7-A2, National Committee for Clinical Laboratory Standards, Villanova, Pa.].
(§3) An inoculum level of 5×10^5 CFU/mL, and a range of antibiotic concentrations (64-0.06 μg/mL) is used. […] The test organisms include a spectrum of Gram-positive bacteria comprised of Staphylococcus sp., Streptococcus sp. and Enterococcus sp. These organisms include recent clinical isolates that are resistant to methicillin, penicillin and/or vancomycin.

Staphylococcus sp. = conditions: broth dilution, 18 hours at 35° C.; for MIC Staphylococcus aureus (ATCC 29213): strain ATCC 29213; for MIC Staphylococcus aureus (GC 1131): strain GC 1131; for MIC Staphylococcus aureus (GC 3051): strain GC 3051; for MIC Staphylococcus aureus (GC 3053): strain GC 3053; for MIC Staphylococcus aureus (GC 4541): strain GC 4541; for MIC Staphylococcus aureus (GC 4542): strain GC 4542; for MIC Staphylococcus aureus-SMITH (GC 4543): strain GC 4543; for MIC Staphylococcus aureus (GC 4544): strain GC 4544; for MIC Staphylococcus aureus (GC 4545): strain GC 4545; for MIC Staphylococcus haemolyticus (GC 4546): strain GC 4546; for MIC Coagulase Negative Staphylococcus (GC 4547): strain GC 4547; for MIC Coagulase Negative Staphylococcus (GC 4548): strain GC 4548; for MIC Coagulase Negative Staphylococcus (GC 4549): strain GC 4549; for MIC Coagulase Negative Staphylococcus (GC 4551): strain GC 4551; for MIC Coagulase Negative Staphylococcus (GC 6257): strain GC 6257
Procedure: as §1, §2, §3

Streptococcus sp. = conditions: broth dilution, 18 hours at 35° C.
Procedure: as §1, §2, §3

Escherichia coli = conditions: 18 hours at 35° C.

MIC Enterococcus avium (GC 4558) (Enterococcus sp.): 16 µg/mL (≈ 10.9 µM)
MIC Enterococcus faecalis (ATCC 29212) (Enterococcus sp.): 32 µg/mL (≈ 21.7 µM)
MIC Enterococcus faecalis (GC 2242) (Enterococcus sp.): 16 µg/mL (≈ 10.9 µM)
MIC Enterococcus faecalis (GC 2691) (Enterococcus sp.): 8 µg/mL (≈ 5.43 µM)
MIC Enterococcus faecalis (GC 3059) (Enterococcus sp.): 32 µg/mL (≈ 21.7 µM)
MIC Enterococcus faecalis (GC 4552) (Enterococcus sp.): 32 µg/mL (≈ 21.7 µM)
MIC Enterococcus faecalis (GC 4553) (Enterococcus sp.): 16 µg/mL (≈ 10.9 µM)
MIC Enterococcus faecalis (GC 4554) (Enterococcus sp.): 32 µg/mL (≈ 21.7 µM)
MIC Enterococcus faecalis (GC 6189) (Enterococcus sp.): 16 µg/mL (≈ 10.9 µM)
MIC Enterococcus faecium (GC 2243) (Enterococcus sp.): 32 µg/mL (≈ 21.7 µM)
MIC Enterococcus faecium (GC 4556) (Enterococcus sp.): 32 µg/mL (≈ 21.7 µM)
MIC Enterococcus faecium (GC 4557) (Enterococcus sp.): 32 µg/mL (≈ 21.7 µM)
MIC Enterococcus faecalis (ATCC 29212) (Enterococcus sp.; inoculum 5×10^5 CFU/mL, strain ATCC 29212): 32 µg/mL (≈ 21.7 µM)
MIC Enterococcus faecalis (GC 2242) (Enterococcus sp.; inoculum 5×10^5 CFU/mL, strain GC 2242): 16 µg/mL (≈ 10.9 µM)
MIC Enterococcus faecium (GC 2243) (Enterococcus sp.; inoculum 5×10^5 CFU/mL, strain GC 2243): 32 µg/mL (≈ 21.7 µM)
MIC Enterococcus faecalis (GC 2691) (Enterococcus sp.; inoculum 5×10^5 CFU/mL, strain GC 2691): 8 µg/mL (≈ 5.43 µM)
MIC Enterococcus faecalis (GC 3059) (Enterococcus sp.; inoculum 5×10^5 CFU/mL, strain GC 3059): 32 µg/mL (≈ 21.7 µM)
MIC Enterococcus faecalis (GC 4552) (Enterococcus sp.; inoculum 5×10^5 CFU/mL, strain GC 4552): 32 µg/mL (≈ 21.7 µM)
MIC Enterococcus faecalis (GC 4553) (Enterococcus sp.; inoculum 5×10^5 CFU/mL, strain GC 4553): 16 µg/mL (≈ 10.9 µM)
MIC Enterococcus faecalis (GC 4554) (Enterococcus sp.; inoculum 5×10^5 CFU/mL, strain GC 4554): 32 µg/mL (≈ 21.7 µM)
MIC Enterococcus faecium (GC 4556) (Enterococcus sp.; inoculum 5×10^5 CFU/mL, strain GC 4556): 32 µg/mL (≈ 21.7 µM)
MIC Enterococcus faecium (GC 4557) (Enterococcus sp.; inoculum 5×10^5 CFU/mL, strain GC 4557): 32 µg/mL (≈ 21.7 µM)
MIC Enterococcus avium (GC 4558) (Enterococcus sp.; inoculum 5×10^5 CFU/mL, strain GC 4558): 16 µg/mL (≈ 10.9 µM)
MIC Enterococcus faecalis (GC 6189) (Enterococcus sp.; inoculum 5×10^5 CFU/mL, strain GC 6189): 16 µg/mL (≈ 10.9 µM)
MIC Staphylococcus aureus (ATCC 29213) (Staphylococcus sp.): 32 µg/mL (≈ 21.7 µM)
MIC Staphylococcus aureus (GC 1131) (Staphylococcus sp.): 32 µg/mL (≈ 21.7 µM)
MIC Staphylococcus aureus (GC 3051) (Staphylococcus sp.): 32 µg/mL (≈ 21.7 µM)
MIC Staphylococcus aureus (GC 3053) (Staphylococcus sp.): 32 µg/mL (≈ 21.7 µM)
MIC Staphylococcus aureus (GC 4541) (Staphylococcus sp.): 32 µg/mL (≈ 21.7 µM)
MIC Staphylococcus aureus (GC 4542) (Staphylococcus sp.): 32 µg/mL (≈ 21.7 µM)
MIC Staphylococcus aureus-SMITH (GC 4543) (Staphylococcus sp.): 32 µg/mL (≈ 21.7 µM)
MIC Staphylococcus aureus (GC 4544) (Staphylococcus sp.): 32 µg/mL (≈ 21.7 µM)
MIC Staphylococcus aureus (GC 4545) (Staphylococcus sp.): 32 µg/mL (≈ 21.7 µM)
MIC Coagulase Negative Staphylococcus (GC 4547) (Staphylococcus sp.): 32 µg/mL (≈ 21.7 µM)
MIC Coagulase Negative Staphylococcus (GC 4548) (Staphylococcus sp.): 32 µg/mL (≈ 21.7 µM)
MIC Coagulase Negative Staphylococcus (GC 4549) (Staphylococcus sp.): 8 µg/mL (≈ 5.43 µM)
MIC Coagulase Negative Staphylococcus (GC 4551) (Staphylococcus sp.): 32 µg/mL (≈ 21.7 µM)
MIC Coagulase Negative Staphylococcus (GC 6257) (Staphylococcus sp.): 32 µg/mL (≈ 21.7 µM)
MIC Streptococcus agalactiae (GC 4564) (Streptococcus sp.): 0.25 µg/mL (≈ 0.17 µM)
MIC Streptococcus pneumoniae (ATCC 6301) (Streptococcus sp.): 0.25 µg/mL (≈ 0.17 µM)
MIC Streptococcus pneumoniae (GC 1894) (Streptococcus sp.): <0.06 µg/mL
MIC Streptococcus pneumoniae (GC 4565) (Streptococcus sp.): <0.06 µg/mL
MIC Streptococcus pyogenes (GC 4563) (Streptococcus sp.): 2 µg/mL (≈ 1.36 µM)
MIC Streptococcus pneumoniae (ATCC 6301) (Streptococcus sp.; inoculum 5×10^5 CFU/mL, strain ATCC 6301): 0.25 µg/mL (≈ 0.17 µM)
MIC Streptococcus pneumoniae (GC 1894) (Streptococcus sp.; inoculum 5×10^5 CFU/mL, strain GC 1894): <0.06 µg/mL
MIC Streptococcus pyogenes (GC 4563) (Streptococcus sp.; inoculum 5×10^5 CFU/mL, strain GC 4563): 2 µg/mL (≈ 1.36 µM)
MIC Streptococcus agalactiae (GC 4564) (Streptococcus sp.; inoculum 5×10^5 CFU/mL, strain GC 4564): 0.25 µg/mL (≈ 0.17 µM)
MIC Streptococcus pneumoniae (GC 4565) (Streptococcus sp.; inoculum 5×10^5 CFU/mL, strain GC 4565): <0.06 µg/mL
MIC Escherichia coli (ATCC 25922) (Escherichia coli): >64 µg/mL
MIC Escherichia coli (GC 4559) (Escherichia coli): >64 µg/mL
MIC Escherichia coli (GC 4560) (Escherichia coli): 64 µg/mL (≈ 43.4 µM)
Structure (SMILES): CC(c1ccccc1)C1NC(=O)CNC(=O)C(CO)NC(=O)C(C(O)C2CNC(=N)N2C2OC(CO)C(O)C(O)C2O)NC(=O)C(C(O)C2CNC(=N)N2)NC(=O)C(Cc2ccc(OC3OC(CO)C(OC4OC5COC6(CCCCCCCCCCCC6)OC5C(O)C4O)C(O)C3O)cc2)NC1=O (stereo not drawn) [Example 210]
MIC Staphylococcus haemolyticus (GC 4546) (Staphylococcus sp.): 32 µg/mL (≈ 21.7 µM)

MIC Enterococcus faecalis (ATCC 29212) (Enterococcus sp.; strain ATCC 29212): >128 µg/mL
MIC Enterococcus faecalis (GC 2242) (Enterococcus sp.; strain GC 2242): >128 µg/mL
MIC Enterococcus faecium (GC 2243) (Enterococcus sp.; strain GC 2243): >128 µg/mL
MIC Enterococcus faecalis (GC 2691) (Enterococcus sp.; strain GC 2691): >128 µg/mL
MIC Enterococcus faecalis (GC 3059) (Enterococcus sp.; strain GC 3059): >128 µg/mL
MIC Enterococcus faecalis (GC 4552) (Enterococcus sp.; strain GC 4552): >128 µg/mL
MIC Enterococcus faecalis (GC 4553) (Enterococcus sp.; strain GC 4553): 128 µg/mL (≈ 102 µM)
MIC Enterococcus faecalis (GC 4554) (Enterococcus sp.; strain GC 4554): >128 µg/mL
MIC Enterococcus faecium (GC 4556) (Enterococcus sp.; strain GC 4556): >128 µg/mL
MIC Enterococcus faecium (GC 4557) (Enterococcus sp.; strain GC 4557): 128 µg/mL (≈ 102 µM)
MIC Enterococcus avium (GC 4558) (Enterococcus sp.; strain GC 4558): 128 µg/mL (≈ 102 µM)
MIC Enterococcus faecalis (GC 6189) (Enterococcus sp.; strain GC 6189): >128 µg/mL
MIC Staphylococcus aureus (ATCC 29213) (Staphylococcus sp.): >128 µg/mL
MIC Staphylococcus aureus (GC 1131) (Staphylococcus sp.): >128 µg/mL
MIC Staphylococcus aureus (GC 3051) (Staphylococcus sp.): >128 µg/mL
MIC Staphylococcus aureus (GC 3053) (Staphylococcus sp.): >128 µg/mL
MIC Staphylococcus aureus (GC 4541) (Staphylococcus sp.): >128 µg/mL
MIC Staphylococcus aureus (GC 4542) (Staphylococcus sp.): >128 µg/mL
MIC Staphylococcus aureus-SMITH (GC 4543) (Staphylococcus sp.): >128 µg/mL
MIC Staphylococcus aureus (GC 4544) (Staphylococcus sp.): >128 µg/mL
MIC Staphylococcus aureus (GC 4545) (Staphylococcus sp.): >128 µg/mL
MIC Coagulase Negative Staphylococcus (GC 4547) (Staphylococcus sp.): 64 µg/mL (≈ 51.2 µM)
MIC Coagulase Negative Staphylococcus (GC 4548) (Staphylococcus sp.): 128 µg/mL (≈ 102 µM)
MIC Coagulase Negative Staphylococcus (GC 4549) (Staphylococcus sp.): 64 µg/mL (≈ 51.2 µM)
MIC Coagulase Negative Staphylococcus (GC 4551) (Staphylococcus sp.): >128 µg/mL
MIC Coagulase Negative Staphylococcus (GC 6257) (Staphylococcus sp.): 64 µg/mL (≈ 51.2 µM)
MIC Streptococcus pneumoniae (ATCC 6301) (Streptococcus sp.; strain ATCC 6301): >128 µg/mL
MIC Streptococcus pneumoniae (GC 1894) (Streptococcus sp.; strain GC 1894): 128 µg/mL (≈ 102 µM)
MIC Streptococcus pyogenes (GC 4563) (Streptococcus sp.; strain GC 4563): 128 µg/mL (≈ 102 µM)
MIC Streptococcus agalactiae (GC 4564) (Streptococcus sp.; strain GC 4564): >128 µg/mL
MIC Streptococcus pneumoniae (GC 4565) (Streptococcus sp.; strain GC 4565): >128 µg/mL
MIC Escherichia coli (ATCC 25922) (Escherichia coli; strain ATCC 25922, broth dilution): >128 µg/mL
MIC Escherichia coli (GC 4559) (Escherichia coli; strain GC 4559, broth dilution): 128 µg/mL (≈ 102 µM)
MIC Escherichia coli (GC 4560) (Escherichia coli; strain GC 4560, broth dilution): 64 µg/mL (≈ 51.2 µM)
Structure (SMILES): CC(c1ccccc1)C1NC(=O)CNC(=O)C(CO)NC(=O)C(C(O)C2CNC(=N)N2C2OC(CO)C(O)C(O)C2O)NC(=O)C(C(O)C2CNC(=N)N2)NC(=O)C(Cc2ccc3oc(-c4ccccc4OC4OC(CO)C(O)C(O)C4O)nc3c2)NC1=O (stereo not drawn) [Example 36, Cyclo[3-[2-[2-(hexopyranosyloxy)phenyl]-1,3-benzoxazol-5-yl]alanyl-3-(2-iminoimidazolidin-4-yl)seryl-3-(3-hexopyranosyl-2-iminoimidazolidin-4-yl)serylserylglycyl-β-methyl-phenylalanyl]]
MIC Staphylococcus haemolyticus (GC 4546) (Staphylococcus sp.): 64 µg/mL (≈ 51.2 µM)
